Patent publication US20250270206A1, “COMPOSITIONS AND METHODS FOR INHIBITION OF RAS” (TheRas, Inc., priority 2022, published 2025)

What was measured:
[1] = biological target: T1, GppNHp-loaded KRAS4b (amino acids 1-169) G12C/C118S (Homo sapiens, UniProt P01116, C118S/G12C); test: MALDI-TOF MS covalent Cys12 modification, GppNHp-loaded KRAS G12C; type: binding; settings: 15 minutes reaction time, 1 μM protein, 1:2.5 protein to compound ratio
T1 construct: KRAS4b (amino acids 1-169) G12C/C118S protein; made in house
Procedure: (§1) MALDI-TOF MS analysis was performed using 1 μM protein target, and 1:2.5 protein to compound ratio was used.
(§2) Reaction: 1 μM of GppNHp, GTP, or GDP-loaded KRAS4b (amino acids 1-169) G12C/C118S protein (produced in-house by Protein Expression Laboratory, FNLCR/Leidos Biomed) in 20 mM 4-(2-hydroxyethyl)-1-piperazineethanesulfonic acid (HEPES) buffer containing 150 mM NaCl, 1 mM MgCl2, pH 7.3 was prepared freshly before assay. Ten-μL aliquots of protein were dispensed onto low volume 384-well plate, then 375 nL DMSO, and 25 nL of tested compounds from 5 mM DMSO stocks were added to appropriate wells using ECHO 555 acoustic liquid handler (Labcyte Inc.). For each reaction/assay, three blanks were prepared by mixing 10 μL of protein solution with 400 nL DMSO. The contents of the wells were carefully mixed by aspiration, and then each plate was sealed with an adhesive cover, centrifuged at 2000 g for 1 minute, and kept in the dark at room temperature until 5 min, 15 min, 30 min, 2 h, or 6 h collections.
(§3) Target pretreatment: Before each assay MALDI target (Bruker MPT 384 ground steel BC) was pre-treated by pipetting on each spot 0.75 μL of saturated sinapinic acid in acetonitrile (ACN).
(§4) Sample preparation: At collection time point, 2 μL of reaction mixtures were pipetted out into 20 μL MALDI matrix solution (saturated solution of sinapinic acid in 1:1 ACN:water solution containing 0.75% trifluoroacetic acid (TFA)) deposited on 384 well polypropylene plate. Resulting solution was mixed by aspiration, centrifuged at 2000 g for 1 minute, then 1 μL aliquots were dispensed on pre-treated MALDI target using Beckman Coulter Biomek FX^P 96/384-Span-8 Laboratory Automation Workstation. Finally, the MALDI target was dried under mild vacuum to produce spots with fine crystalline structure.
(§5) Measurements: MALDI-TOF measurements were performed on a Bruker Daltonics rapifleX Tissuetyper TOF-TOF mass spectrometer using linear mode and mass range from 18.6 to 21.6 kDa. Detector gain was set to 3.3× (483 V), sample rate to 5 GS/s, real time smoothing to medium (175 MHz), laser smart beam pattern was set to: “MS Thin Layer M5”, and the laser frequency was 10000 Hz. Spectra were automatically collected using custom AutoXecute method. Laser power was auto adjusted using fuzzy control. The peak selection range was set to be between 19000 and 21500 Da. Peak evaluation uses half width parameter set to be smaller than 40 Da for processed spectrograms (centroid peak detection: smoothed by SavitzkyGolay algorithm using 7 m/z width and 2 cycles; baseline was subtracted using median algorithm with flatness 1 and median level 0.01). Fuzzy control used Proteins/Oligonucleotides protocol with minimum half width 1/10 times above threshold. Up to 40000 satisfactory shots were collected in 10000 shot steps. Dynamic termination was implemented to finish data collection when peak signal/noise ratio reached a value of 50.
(§6) Spectra processing: Spectra were smoothed by SavitzkyGolay algorithm using 7 m/z width and three cycles. Centroid peak detection algorithm was used with signal to noise threshold set to 6, relative intensity threshold 4%, peak width 10 m/z and median baseline subtraction using flatness of 1 and median level of 0.01. Peak intensity and area under the peak were evaluated and recorded for all peaks between 19,300 Da and 21,550 Da.
(§7) Calculation of percent modification: Percent modification was calculated as a ratio of peak height for protein modified by compound to sum of peak height of remaining protein plus peak height for protein modified by compound. If multiple modifications were observed each was calculated as a ratio of peak height for given modification versus sum of peak heights for all observed protein species. Data reported in Table 5 are from the 15 minutes reaction time point.

[2] = biological target: T2, GDP-loaded KRAS4b (amino acids 1-169) G12C/C118S (Homo sapiens, UniProt P01116, C118S/G12C); test: MALDI-TOF MS covalent Cys12 modification, GDP-loaded KRAS G12C; type: binding; settings: 15 minutes reaction time, 1 μM protein, 1:2.5 protein to compound ratio
T2 construct: KRAS4b (amino acids 1-169) G12C/C118S protein; made in house
Procedure: as §1, §2, §3, §4, §5, §6, §7

[3] = biological target: T3, Avi-KRAS G12C (1-169) GppNHp/RAF1 RBD-3×FLAG (52-151) (Homo sapiens, UniProt P01116, G12C); test: KRAS G12C-effector (RAF1 RBD) protein:protein interaction HTRF disruption assay; type: biochemical; settings: PPI HTRF
T3 construct: Avi-KRAS G12C (1-169) GppNHp
Procedure: A protein:protein interaction (PPI) Homogeneous Time Resolved Fluorescence (HTRF) assay was used to determine the effectiveness of compounds of the present disclosure in disrupting KRAS G12C protein and effector (RAF1) binding.
The HTRF assay used the following reagents and proteins: 50 nM Avi-KRAS G12C (1-169) GppNHp/RAF1 RBD-3×FLAG (52-151); 75 nM Avi-RAF1 RBD-3×FLAG; Assay Buffer: 50 mM Tris pH 7.5, 100 mM NaCl, 5 mM MgCl2, 0.1% BSA, 0.01% Tween 20, 10% DMSO; Bead Buffer: 50 mM Tris pH 7.5, 0.01% Tween 20; Assay volume: 20 μL (384 well plate-low volume format); and Compound titration: 30-0.02 μM, 3× dilution series.
The HTRF assay employed the following protocol:
Compounds were dispensed in assay plate (384-well, Grenier Bione #784075) using Echo (model 555) with dose response settings: 200 nL final volume, titration from 100 μM as a 10-point dilution series. KRAS proteins were prepared in assay buffer, and dispensed on plates, 5 μL per well, then incubated for 1 h at room temperature, with 700 rpm shaking. RAF1 RBD were prepared in assay buffer, dispensed onto plates, 5 μL per well, and then incubated for 1 h at room temperature, with 700 rpm shaking. Reagent mix was then prepared and dispensed on plates, 10 μL per well, and then incubated for 1 h at room temperature, with 700 rpm shaking.
Plates were analyzed on an Envision plate reader using the following setting: Excitation 320 nm, Bandwidth 75 nm, Emission 615 nm, Bandwidth 85 nm; Gain 100%; Flashes 100; Lag 60 μs. Data was reported as percentage of activity, with DMSO as 100%. Data was plotted and analyzed using Prism 8.

[4] = biological target: T4, GTP-loaded KRAS4b (amino acids 1-169) G12C/C118S (Homo sapiens, UniProt P01116, C118S/G12C); test: MALDI-TOF MS covalent Cys12 modification, GTP-loaded KRAS G12C; type: binding; settings: 15 minutes reaction time, 1 μM protein, 1:2.5 protein to compound ratio
T4 construct: KRAS4b (amino acids 1-169) G12C/C118S protein; made in house
Procedure: as §1, §2, §3, §4, §5, §6, §7

pERK in NCI-H358 cells = test: Cell-based pERK HTRF assay; settings: Homo sapiens, 0.5 h, 30 min incubation
Procedure: pERK HTRF assays (Perkin Elmer) were used to determine the effectiveness of compounds of the present disclosure in disrupting KRAS G12C protein/effector signaling in cells.
On Day 1, cells (NCI-H358) were seeded into 96-well plates at 4×10^4 cells/well in complete growth media (RPMI, 10% FBS).
On Day 2, cells were treated with compounds at 0.25% DMSO. The source plate was created with compounds diluted in media at 5-fold the final assay concentration. The compounds were run in a 9-point concentration curve starting at 75 μM, with a 3-fold dilution between concentrations. 20 μL was transferred onto the cell plates (final volume in wells was 100 μL). Plates were harvested after 30 min incubation by aspirating media and adding kit-supplied 1× supplemented lysis buffer to all wells (75 μL per well). Plates were then placed on a plate shaker and incubated at 850 rpm for an additional 30 min.
Antibody mixture solution was prepared by diluting aliquoted d2 and Eu Cryptate antibodies 1:20 in kit supplied detection buffer, then mixed the diluted antibodies solutions (1:1 v:v). 4 μL of this solution was then added to a 384-well detection plate (Perkin Elmer; 6008230).
Samples were homogenized by pipetting up and down and then transferred (16 μL of cell lysates) from the 96-well cell culture plate to two wells of the HTRF 384-well detection plate containing the antibody solution. Plates were centrifuged (524 g for 1 min) and allowed to incubate between 4 and 24 h at room temperature. Maximum signal is reached after 4 h incubation time and remains stable over a period of 24 hours. Therefore, readings can be made between 4 and 24 h of incubation. Plates were centrifuged again (524 g for 1 min) and analyzed on the EnVision plate reader using the following settings: Excitation 320 nm, Bandwidth 75 nm; Emission 615 nm, Bandwidth 85 nm; Gain 100%; Flashes 100; Lag 60 μs.

Row | Compound | GppNHp-KRAS G12C percent of modification [1] | GDP-KRAS G12C percent of modification [2] | IC50 [3] [µM] | GTP-KRAS G12C percent of modification [4] | IC50 (pERK in NCI-H358 cells) [µM]
1 | C=CC(=O)N1CC[C@@H](N(C)c2nc(OC[C@@]34CCCN3C[C@H](F)C4)nc3c(F)c(-c4ccc(F)c5sc(N)c(C#N)c45)ncc23)[C@@H]1C [Compound 52] | A (percent of modification ≥70%) | A (percent of modification ≥70%) | ≤ 0.5 | B (50% percent of modification <70%) | ≤ 0.1
2 | C=CC(=O)N1CCC(N(C)c2nc(OC[C@@]34CCCN3C[C@H](F)C4)nc3c(Cl)c(-c4ccc(F)c5sc(N)c(C#N)c45)ncc23)[C@H]1CC (stereo partly shown) [Compound 38] | A (percent of modification ≥70%) | A (percent of modification ≥70%) | ≤ 0.5 | A (percent of modification ≥70%) | ≤ 0.1
3 | C=CC(=O)N1CCC(N(C)c2nc(OC[C@@]34CCCN3C[C@H](F)C4)nc3c(Cl)c(-c4ccc(F)c5sc(N)c(C#N)c45)ncc23)[C@H]1COC (mixture of isomers) [Compound 29, 4-(4-((rac-(2S,3R)-1-acryloyl-2-(methoxymethyl)pyrrolidin-3-yl)(methyl)amino)-8-chloro-2-(((2R,7aS)-2-fluorotetrahydro-1H-pyrrolizin-7a(5H)-yl)methoxy)pyrido[4,3-d]pyrimidin-7-yl)-2-amino-7-fluorobenzo[b]thiophene-3-carbonitrile] | A (percent of modification ≥70%) | A (percent of modification ≥70%) | ≤ 0.5 | A (percent of modification ≥70%) | ≤ 0.1
4 | C=CC(=O)N1CC[C@@H](N(CC)c2nc(OC[C@@]34CCCN3C[C@H](F)C4)nc3c(F)c(-c4ccc(F)c5sc(N)c(C#N)c45)ncc23)[C@H]1CC [Compound 46] | A (percent of modification ≥70%) | A (percent of modification ≥70%) | ≤ 0.5 | A (percent of modification ≥70%) | 0.1 to 1

Other lines, results leading:

Row | GppNHp-KRAS G12C percent of modification [1] | GDP-KRAS G12C percent of modification [2] | IC50 [3] [µM] | GTP-KRAS G12C percent of modification [4] | IC50 (pERK in NCI-H358 cells) [µM] | Compound
5 | A (percent of modification ≥70%) | A (percent of modification ≥70%) | ≤ 0.5 | A (percent of modification ≥70%) | ≤ 0.1 | C=CC(=O)N1CC[C@@H](N(C)c2nc(OC[C@@]34CCCN3C[C@H](F)C4)nc3c(F)c(-c4ccc(F)c5sc(N)c(C#N)c45)ncc23)C1 [Compound 6, 2-amino-7-fluoro-4-[8-fluoro-2-[[(2R,8S)-2-fluoro-1,2,3,5,6,7-hexahydropyrrolizin-8-yl]methoxy]-4-[methyl-[(3R)-1-prop-2-enoylpyrrolidin-3-yl]amino]pyrido[4,3-d]pyrimidin-7-yl]benzothiophene-3-carbonitrile]
6 | C (10%≤percent of modification <50%) | A (percent of modification ≥70%) | ≤ 0.5 | C (10%≤percent of modification <50%) | 0.1 to 1 | C=CC(=O)N1CC[C@@H](N(C)c2nc(N3CC(N4CC5(CC5)C4)C3)nc3c(F)c(-c4ccc(F)c5sc(N)c(C#N)c45)ncc23)C1 [Compound 14, 2-amino-4-[2-[3-(5-azaspiro[2.3]hexan-5-yl)azetidin-1-yl]-8-fluoro-4-[methyl-[(3R)-1-prop-2-enoylpyrrolidin-3-yl]amino]pyrido[4,3-d]pyrimidin-7-yl]-7-fluoro-benzothiophene-3-carbonitrile]
7 | A (percent of modification ≥70%) | A (percent of modification ≥70%) | ≤ 0.5 | A (percent of modification ≥70%) | ≤ 0.1 | C=CC(=O)N1C[C@H](F)[C@@H](N(C)c2nc(OC[C@@]34CCCN3C[C@H](F)C4)nc3c(F)c(-c4ccc(F)c5sc(N)c(C#N)c45)ncc23)C1 [Compound 12]
8 | A (percent of modification ≥70%) | A (percent of modification ≥70%) | ≤ 0.5 | A (percent of modification ≥70%) | ≤ 0.1 | C=CC(=O)N1C[C@@H](F)[C@@H](N(C)c2nc(OC[C@@]34CCCN3C[C@H](F)C4)nc3c(F)c(-c4ccc(F)c5sc(N)c(C#N)c45)ncc23)C1 [Compound 11]
